Converted amounts (≈) assume the structure as drawn. Read-outs that look alike come from different tables or passages of the source.
Tests used:
[1] = system: Staphylococcus aureus MSSA; assay: MIC agar dilution assay (Table 1); type: cell-based; conditions: for MIC50: read-out: MIC, 50% Inhibitious; for MIC90: read-out: MIC, 90% Inhibitious
Streptococcus faecalis = assay: MIC agar dilution assay (Table 1); type: cell-based; conditions: Enterococcus faecalis; for MIC50: read-out: MIC, 50% Inhibitious; for MIC90: read-out: MIC, 90% Inhibitious
Escherichia coli 314 = assay: animal or person; conditions: for ED50: Escherichia coli, 314, in Mus musculus, 168 h
Procedure: (§1) In this test, white mice (weight 20±2 g) of Charles River strain CDI received an intraperitoneal injection of a specific amount of a suspension of a bacterial cell culture. The amount is sufficient to cause death of untreated animals within 24-48 hrs. A half hour later, the test animals were administered either an oral or a subcutaneous dosing of the test compound in 0.5 ml of 0.2% starch solution. With streptococcal infections, the test animals received a second dose after 3 hrs. Each test group had 5 animals and each test was performed three times. The ED50 values were calculated on the basis of the survivors at 7 days. An estimate of the oral absorption of the test compounds was determined from the ratio of the ED50 values from the oral and subcutaneous dosings.

Klebsiella pneum. AD = assay: animal or person; conditions: for ED50: Klebsiella, in Mus musculus, 168 h
Procedure: as §1

Staph. aureus Smith = assay: animal or person; conditions: for ED50: Staphylococcus aureus, in Mus musculus, 168 h
Procedure: as §1

SERRAT MARC = assay: MIC agar dilution assay (Table III); type: cell-based; conditions: 18 h, read-out: MINIMAL INHIBITORY CONC.
Procedure: (§2) TEST: 406 METHOD: AGAR DIL
(§3) MEDIUM: MUEL-HIN INOCULUM: 1.OE+04 - 5.OE+04
(§4) INCUBATION: 18 Hrs. 35 Celsius

MORG MORG = assay: MIC agar dilution assay (Table III); type: cell-based; conditions: 18 h, read-out: MINIMAL INHIBITORY CONC.
Procedure: as §2, §3, §4

STAPH AUR = assay: MIC agar dilution assay (Table III); type: cell-based; conditions: 18 h, 24 STAPH AUR CMC 83 131, 35 Celsius, read-out: MINIMAL INHIBITORY CONC.
Procedure: as §2, §3, §4

Streptococcus pneumoniae = assay: MIC agar dilution assay (Table 1); type: cell-based
[2] = system: Streptococcus beta-hemolytic; assay: MIC agar dilution assay (Table 1); type: cell-based; conditions: for MIC50: read-out: MIC, 50% Inhibitious; for MIC90: read-out: MIC, 90% Inhibitious
PSEU AERUG = assay: MIC agar dilution assay (Table III); type: cell-based; conditions: 18 h, read-out: MINIMAL INHIBITORY CONC.
Procedure: (§5) The results are summarized in Table III. |TEST: 406 METHOD: […] |MEDIUM: […] |INCUBATION: 18 Hrs. 35 Celsius | Aerobic: T

STREP FAEC = assay: MIC agar dilution assay (Table III); type: cell-based; conditions: 18 h, read-out: MINIMAL INHIBITORY CONC.
Procedure: as §5

ESCH COLI = assay: MIC agar dilution assay (Table III); type: cell-based; conditions: 18 h, read-out: MINIMAL INHIBITORY CONC.
Procedure: as §5

CITRO DIV = assay: MIC agar dilution assay (Table III); type: cell-based; conditions: 18 CITRO DIV K 82 24; 18 Hrs, 35 Celsius; read-out: MINIMAL INHIBITORY CONC.
Procedure: as §5

PROV STUA = assay: MIC agar dilution assay (Table III); type: cell-based; conditions: 17 PROV STUA CMC 83 3; 18 Hrs, 35 Celsius; read-out: MINIMAL INHIBITORY CONC.
Procedure: as §5

[3] = system: Staphylococcus aureus MRSA; assay: MIC agar dilution assay (Table 1); type: cell-based; conditions: for MIC50: read-out: MIC, 50% Inhibitious; for MIC90: read-out: MIC, 90% Inhibitious
Bacteroides fragilis = assay: MIC agar dilution assay, anaerobe bacteria (Table 1); type: cell-based
Bacteroides app. = assay: as above; type: cell-based; conditions: for MIC50: read-out: MIC, 50% Inhibitious; for MIC90: read-out: MIC, 90% Inhibitious
Strept. pyogenes C 203 = assay: animal or person; conditions: for ED50: Streptococcus pyogenes, C203, in Mus musculus, 168 h
Procedure: as §1

Strept. pneum. SVI = assay: animal or person; conditions: for ED50: Mus musculus, 168 h
Procedure: as §1

Staph. aureus SSC-80-32 = assay: animal or person; conditions: for ED50: Staphylococcus aureus, SSC8032, in Mus musculus, 168 h
Procedure: as §1

[4] = read-out: MIC, 50% Inhibitious, 50%
[5] = read-out: MIC, 90% Inhibitious, 90%
[6] = o/s, estimate of oral absorption, 10080 min

Work on `CCn1cc(C(=O)O)c(=O)c2cc(F)c(N3CCN(C)CC3)cc21` [PF, Pefloxacin, reference compound] yielded an MIC50 ([1]; Staphylococcus aureus MSSA, 50%) of 0.5 µg/mL (≈ 1.5 µM), an MIC90 ([1]; Staphylococcus aureus MSSA, 90%) of 1 µg/mL (≈ 3 µM) and an MIC50 (Streptococcus faecalis; Streptococcus faecalis, 50%) of 4 µg/mL (≈ 12 µM). The MIC90 (Streptococcus faecalis; Streptococcus faecalis, 90%) was 8 µg/mL (≈ 24 µM), the ED50 (Escherichia coli 314; po) was 0.84 mg/kg and the ED50 (Escherichia coli 314; sc) was 0.48 mg/kg. It also gave an ED50 (Klebsiella pneum. AD; po) of 0.8 mg/kg, an ED50 (Klebsiella pneum. AD; sc) of 0.71 mg/kg and an ED50 (Staph. aureus Smith; po) of 3.8 mg/kg. It also gave an ED50 (Staph. aureus Smith; sc) of 1.4 mg/kg, an MIC (SERRAT MARC; 10 SERRAT MARC MOR 84 41, 35 Celsius) of 0.06 µg/mL (≈ 0.18 µM) and an MIC (SERRAT MARC; 11 SERRAT MARC CMC 83 74, 35 Celsius) of 4 µg/mL (≈ 12 µM). The MIC (MORG MORG; 14 MORG MORG CMC 84 38, 35 Celsius) was 0.03 µg/mL (≈ 0.09 µM), the MIC (MORG MORG; 15 MORG MORG MOR 84 45, 35 Celsius) was 0.03 µg/mL (≈ 0.09 µM) and the MIC (STAPH AUR) was 2 µg/mL (≈ 6 µM). For the same molecule, the MIC50 (Streptococcus pneumoniae; [4]) was 4 µg/mL (≈ 12 µM), the MIC90 (Streptococcus pneumoniae; [5]) was 8 µg/mL (≈ 24 µM) and the MIC50 ([2]; Streptococcus beta-hemolytic, 50%) was 4 µg/mL (≈ 12 µM). It also gave an MIC90 ([2]; Streptococcus beta-hemolytic, 90%) of 8 µg/mL (≈ 24 µM), an MIC (PSEU AERUG; 19 PSEU AERUG K 84 16, 35 Celsius) of 4 µg/mL (≈ 12 µM) and an MIC (PSEU AERUG; 20 PSEU AERUG VGH 84 3, 35 Celsius) of 8 µg/mL (≈ 24 µM). It also gave an MIC (PSEU AERUG; 21 PSEU AERUG CMC 83 20, 35 Celsius) of 2 µg/mL (≈ 6 µM), an MIC (STREP FAEC; 25 STREP FAEC UCI 85 30, 35 Celsius) of 4 µg/mL (≈ 12 µM) and an MIC (STREP FAEC; 26 STREP FAEC VGH 84 69, 35 Celsius) of 2 µg/mL (≈ 6 µM). For the same molecule, the MIC (STREP FAEC; 27 STREP FAEC CMC 83 120, 35 Celsius) was 4 µg/mL (≈ 12 µM), the MIC (ESCH COLI; 1 ESCH COLI MOR 84 20, 35 Celsius) was 0.06 µg/mL (≈ 0.18 µM) and the MIC (ESCH COLI; 2 ESCH COLI VGH 84 19, 35 Celsius) was 0.06 µg/mL (≈ 0.18 µM). The MIC (ESCH COLI; 3 ESCH COLI CMC 84 50, 35 Celsius) was 0.06 µg/mL (≈ 0.18 µM), the MIC (ESCH COLI; 28 ESCH COLI ATCC 25922, 35 Celsius) was 0.03 µg/mL (≈ 0.09 µM) and the MIC (CITRO DIV) was 0.03 µg/mL (≈ 0.09 µM). The MIC (PROV STUA) was 4 µg/mL (≈ 12 µM), the MIC50 ([3]; Staphylococcus aureus MRSA, 50%) was 0.5 µg/mL (≈ 1.5 µM) and the MIC90 ([3]; Staphylococcus aureus MRSA, 90%) was 1 µg/mL (≈ 3 µM).

For `O=C(O)c1cn(C2CC2)c2cc(N3CCNCC3)c(F)cc2c1=O` [CF, Ciprofloxacin], the MIC50 ([1]; Staphylococcus aureus, MSSA) was 0.5 µg/mL (≈ 1.51 µM), the MIC90 ([1]; Staphylococcus aureus, MSSA) was 1 µg/mL (≈ 3.02 µM) and the MIC50 (Bacteroides fragilis; read-out: MIC, 50% Inhibitious) was 4 µg/mL (≈ 12.1 µM). It also gave an MIC90 (Bacteroides fragilis; read-out: MIC, 90% Inhibitious) of 4 µg/mL (≈ 12.1 µM), an MIC50 (Bacteroides app.; Bacteroides) of 16 µg/mL (≈ 48.3 µM) and an MIC90 (Bacteroides app.; Bacteroides) of 16 µg/mL (≈ 48.3 µM). For the same molecule, the MIC50 (Streptococcus faecalis) was 1 µg/mL (≈ 3.02 µM), the MIC90 (Streptococcus faecalis) was 2 µg/mL (≈ 6.04 µM) and the ED50 (Strept. pyogenes C 203; po) was 21 mg/kg. The ED50 (Strept. pyogenes C 203; sc) was 4 mg/kg, the “Ratio o/s of the ED50 values from oral and subcutaneous administration” value (from here on “Ratio o/s of the ED50 values”) (Strept. pyogenes C 203; [6]) was 5.3 and the ED50 (Escherichia coli 314; po) was 0.52 mg/kg. The ED50 (Escherichia coli 314; sc) was 0.07 mg/kg, the “Ratio o/s of the ED50 values” value (Escherichia coli 314; [6]) was 7.4 and the ED50 (Klebsiella pneum. AD; po) was 0.38 mg/kg. The ED50 (Klebsiella pneum. AD; sc) was 0.07 mg/kg, the “Ratio o/s of the ED50 values” value (Klebsiella pneum. AD; [6]) was 4.8 and the ED50 (Strept. pneum. SVI; po) was 47 mg/kg. The ED50 (Strept. pneum. SVI; sc) was 15 mg/kg, the “Ratio o/s of the ED50 values” value (Strept. pneum. SVI; [6]) was 3.1 and the ED50 (Staph. aureus Smith; po) was 4.3 mg/kg. The ED50 (Staph. aureus Smith; sc) was 0.64 mg/kg, the “Ratio o/s of the ED50 values” value (Staph. aureus Smith; [6]) was 6.7 and the ED50 (Staph. aureus SSC-80-32; po) was 5.9 mg/kg. The ED50 (Staph. aureus SSC-80-32; sc) was 0.71 mg/kg, the “Ratio o/s of the ED50 values” value (Staph. aureus SSC-80-32; [6]) was 8.3 and the MIC50 (Streptococcus pneumoniae; read-out: MIC, 50% Inhibitious) was 1 µg/mL (≈ 3.02 µM). It also gave an MIC90 (Streptococcus pneumoniae; read-out: MIC, 90% Inhibitious) of 2 µg/mL (≈ 6.04 µM), an MIC50 ([2]; Streptococcus) of 0.5 µg/mL (≈ 1.51 µM) and an MIC90 ([2]; Streptococcus) of 1 µg/mL (≈ 3.02 µM). It also gave an MIC50 ([3]; Staphylococcus aureus, MRSA) of 1 µg/mL (≈ 3.02 µM) and an MIC90 ([3]; Staphylococcus aureus, MRSA) of 1 µg/mL (≈ 3.02 µM).

`CCn1cc(C(=O)O)c(=O)c2cc(F)c(N3CCNCC3)nc21` [EC, Enoxacin] gave an MIC50 (Bacteroides fragilis; [4]) of 16 µg/mL (≈ 49.9 µM), an MIC90 (Bacteroides fragilis; [5]) of 16 µg/mL (≈ 49.9 µM) and an MIC50 (Bacteroides app.; Bacteroides app., 50%) of 16 µg/mL (≈ 49.9 µM).

Work on `CN1CC2CC1CN2c1cc2c(cc1F)c(=O)c(C(=O)O)cn2-c1ccc(F)cc1` (stereo not shown) [Example 5, 6-Fluoro-1-(4-fluorophenyl)-1,4-dihydro-7(5-methyl-2,5-diazabicyclo(2.2.1)hept-2-yl)-4-oxoquinoline-3-carboxylic acid] yielded an MIC50 ([1]; Staphylococcus aureus, MSSA) of 0.25 µg/mL (≈ 0.608 µM), an MIC90 ([1]; Staphylococcus aureus, MSSA) of 0.5 µg/mL (≈ 1.22 µM) and an MIC50 (Bacteroides fragilis; read-out: MIC, 50% Inhibitious) of 4 µg/mL (≈ 9.72 µM). The MIC90 (Bacteroides fragilis; read-out: MIC, 90% Inhibitious) was 4 µg/mL (≈ 9.72 µM), the MIC50 (Bacteroides app.; Bacteroides) was 8 µg/mL (≈ 19.4 µM) and the MIC90 (Bacteroides app.; Bacteroides) was 8 µg/mL (≈ 19.4 µM). For the same molecule, the MIC50 (Streptococcus faecalis) was 4 µg/mL (≈ 9.72 µM), the MIC90 (Streptococcus faecalis) was 8 µg/mL (≈ 19.4 µM) and the MIC50 (Streptococcus pneumoniae; read-out: MIC, 50% Inhibitious) was 1 µg/mL (≈ 2.43 µM). The MIC90 (Streptococcus pneumoniae; read-out: MIC, 90% Inhibitious) was 2 µg/mL (≈ 4.86 µM), the MIC50 ([2]; Streptococcus) was 1 µg/mL (≈ 2.43 µM) and the MIC90 ([2]; Streptococcus) was 4 µg/mL (≈ 9.72 µM). The MIC50 ([3]; Staphylococcus aureus, MRSA) was 0.25 µg/mL (≈ 0.608 µM) and the MIC90 ([3]; Staphylococcus aureus, MRSA) was 1 µg/mL (≈ 2.43 µM).
